According to US20110183948A1, “TREATMENT OF FIBROTIC CONDITIONS USING HEDGEHOG INHIBITORS” (INFINITY PHARMACEUTICALS, INC., priority 2010, published 2011):
Several values for one entry are separate records, joined by “and”; a condition that tells them apart may be missing. Equal entries are not always repeated. Entries after “also recorded” stand apart in the source; their conditions may differ.

Experiments:
Assay type in all cases: in vivo, C57BL/6 mice
[1] = tested on: white blood cells in bronchiolar lavage fluid; experiment: Bleomycin-induced pulmonary fibrosis model (INF-01): bronchiolar lavage fluid cell counts; design: Bronchiolar lavage fluid counts WBC: unit not given here; details: for Bronchiolar lavage fluid counts % lymph / Bronchiolar lavage fluid counts % monos / Bronchiolar lavage fluid counts % neutro / Bronchiolar lavage fluid counts WBC: individual animals
Method: (§1) Thirty-two C57/B6 mice were prospectively randomized into four equally sized groups of eight animals each. An additional four mice served as naïve controls. Pulmonary fibrosis was induced with a single dose of bleomycin (4 U/kg) given intra-nasally on Day 0. Animals' activity and weight were evaluated daily. IPI 926 or vehicle was given every other day from 10 days prior to bleomycin until sacrifice on Day 30, or IPI926 was given beginning on either Day 0 or Day 14 on alternate days until the end of the study. At the end of the study on Day 30, all mice were euthanized and bronchiolar lavage performed to enable an evaluation of the inflammatory infiltrate in the lungs and collect the fluid for possible cytokine evaluation. One lung from each animal was collected for histology, while the other was snap frozen and retained for possible additional analyses.
At necropsy, the inflammatory infiltrated was evaluated by counting cells in the fluid collected following bronchiolar lavage. Bronchiolar lavage was performed by inserting a 20-gauge cannula into the trachea, which was tied in place with suture. The cannula was attached to a 1 mL syringe which was used to deliver and then recover 1 mL of sterile PBS. This fluid was then centrifuged to recover the cells and the resulting fluid saved for potential evaluation. Cell counts were performed on a HTI PCE-90vet automated veterinary hematology analyzer.
At sacrifice, BAL fluids were collected from all animals. The cells from these fluids were evaluated for differential white count. The fluids were retained for cytokine analysis.

[2] = tested on: pulmonary fibrosis induced by bleomycin; experiment: Bleomycin-induced pulmonary fibrosis model (INF-01): lung histology scoring; design: key to Chronic Inflammation (0-5): 0: None present; 1: Rare foci; minimal; 2: Scattered aggregates or mild diffuse inflammation; 3: Numerous aggregates or moderate diffuse inflammation; 4: More marked inflammation either scattered or diffuse; 5: More severe inflammation either scattered diffuse inflammation; details: for pulmonary fibrosis and associated inflammation compared to the vehicle control group: 40 mg/kg, not statistically significant (Kruskal-Wallis); for mean interstitial fibrosis foci count: foci that fill a 10x objective field; for mean chronic inflammation score / mean interstitial fibrosis score: scale 0-5; for Chronic Inflammation (0-5) / Interstitial Fibrosis (0-5) / Number of Foci of Interstitial Fibrosis that Fill a 10x Objective Field: individual animals
Method: as §1
Bleomycin, a glycopeptides anti-cancer agent originally isolated from Streptomyces verticillus is currently approved for use against squamous cell carcinoma, testicular cancer and Hodgkin's disease. Pulmonary fibrosis is a significant toxicity associated with the use of bleomycin, occurring in a significant percentage of patients undergoing bleomycin therapy. In C57/B6 mice, pulmonary inflammation and subsequent fibrosis is reproducible following bleomycin treatment, and the severity of pulmonary fibrosis is dose-dependent with higher doses being used to evaluate short term inflammatory effects, while lower doses are used to study the longer term impact of pulmonary fibrosis. In this model, mice are given 4 U/kg of bleomycin intranasally and pulmonary fibrosis is evaluated histologically 30 days after the administration of the bleomycin.
Each lung sample was trimmed into 1-3 sections. Tissues were embedded in paraffin and sectioned at approximately 5 microns. Two slides for each lung were stained. One was stained with hematoxylin and eosin (H&E) and another serial section was stained with a trichrome stain. All slides were examined by a board-certified veterinary pathologist. Tissues were scored for chronic inflammation and interstitial fibrosis according to the criteria in Table 5 below. In addition the number of foci of interstitial fibrosis in the lung that filled a 10× objective field (100× total magnification) were counted and reported. Statistical analysis was performed with GraphPad Prism version 4.03 and included a Kruskal-Walis test followed by a Dunn's post-test comparing all groups to each other. Individual animal findings are listed herein in the Tables below.
Lungs were taken at sacrifice on Day 30 for analysis. Lungs were removed and partitioned in two halves. On half was fixed in 10% formalin, before embedding and sectioning. Slides made from each sample were stained with H&E or Masson's Trichrome. The other half of lung sample were snap-frozen in liquid nitrogen and stored at −80 C for future analysis of mRNA by QT-PCR and/or proteomic analysis.

[3] = Example 2B bleomycin-induced pulmonary fibrosis: body weight and survival
Method: Experimental conditions used in this study are similar to the ones described in Example 2A. […] Mice were treated with bleomycin (BLM) on day 0 and controls received saline (SAL).
The effects of IPI-926 in body weight and survival that accompany bleomycin insult are shown in FIGS. 15 and 16, respectively.

[4] = Group 2: Qod, Day −10 to Day 30
[5] = groups Day 0 to 30 or Day 14 to 30
[6] = all three treatments, Day-10 to Day 30 greatest effect

For `CC1=C2C[C@H]3[C@@H](CC[C@@H]4C[C@H](NS(C)(=O)=O)CC[C@@]43C)[C@@H]2CC[C@@]2(C1)O[C@@H]1C[C@H](C)CN[C@H]1[C@H]2C` [IPI-926], the “mean lymphocytes in bronchiolar lavage fluid” value ([1]; Day −10 to 30) was 41%, the “mean monocytes in bronchiolar lavage fluid” value ([1]; Day −10 to 30) was 1.5% and the “mean neutrophils in bronchiolar lavage fluid” value ([1]; Day −10 to 30) was 48%. For the same compound, the “mean WBC count in bronchiolar lavage fluid” value (from here on “mean WBC count”) ([1]; Day −10 to Day 30) was 1.53 ×10^6 cells/μL, the “mean WBC count” value ([1]; Days 0-30) was 1.09 ×10^6 cells/μL and the “mean WBC count” value ([1]; Days 14-20 (so in the source)) was 0.79 ×10^6 cells/μL. The “Bronchiolar lavage fluid counts % lymph” value [1, 4] was 43% and 44% (2×) and 41% and 26% and 46%, the “Bronchiolar lavage fluid counts % monos” value [1, 4] was 4% (2×) and 6% (2×) and 8% and 3% and the “Bronchiolar lavage fluid counts % neutro” value [1, 4] was 43% and 41% and 48% and 60% and 49% and 47%. The “Bronchiolar lavage fluid counts WBC” value [1, 4] was 0.6 and 1.3 and 2.1 (2×) and 1.9 and 1.2, the “Bronchiolar lavage fluid counts % lymph” value ([1]; Group 3: Qod, Day 0 to Day 30) was 41% and 45% and 46% (2×) and 40% and 56% and 51% and 49% and the “Bronchiolar lavage fluid counts % monos” value ([1]; Group 3: Qod, Day 0 to Day 30) was 4% (4×) and 3% (2×) and 7% and 5%. For the same compound, the “Bronchiolar lavage fluid counts % neutro” value ([1]; Group 3: Qod, Day 0 to Day 30) was 43% and 47% and 44% and 52% and 41% and 34% and 42% and 45%, the “Bronchiolar lavage fluid counts WBC” value ([1]; Group 3: Qod, Day 0 to Day 30) was 1.3 (3×) and 0.1 and 0.9 and 1.5 and 1.1 and 1.2 and the “Bronchiolar lavage fluid counts % lymph” value ([1]; Group 4: Qod, Day 14 to Day 30) was 51% and 53% and 54% and 42% and 55% and 46% and 45% and 49%. The “Bronchiolar lavage fluid counts % monos” value ([1]; Group 4: Qod, Day 14 to Day 30) was 3% (3×) and 9% and 4% and 1% and 2% and 11%, the “Bronchiolar lavage fluid counts % neutro” value ([1]; Group 4: Qod, Day 14 to Day 30) was 42% and 28% and 41% and 50% and 35% and 49% and 43% and 45% and the “Bronchiolar lavage fluid counts WBC” value ([1]; Group 4: Qod, Day 14 to Day 30) was 1.1 (2×) and 0.9 (3×) and 0.4 (2×) and 0.6. For the same compound, the “white cell count in bronchiolar lavage” value ([1]; all groups treated, greatest in Day 14 to Day 30 group) was “reductions in the number of white cells in the bronchiolar lavage; also recorded: Reductions in white cell count”, the “mean lymphocytes in bronchiolar lavage fluid” value [1, 5] was 47-49% and the “mean neutrophils in bronchiolar lavage fluid” value [1, 5] was 42-44%. The “pulmonary fibrosis and associated inflammation compared to the vehicle control group” value [2] was “reduction in pulmonary fibrosis and associated inflammation”, the “pulmonary fibrosis and associated inflammation compared to the vehicle control group” value ([2]; listed as IPI926) was “effective in reducing the histological features of bleomycin induced pulmonary fibrosis” and the “mean interstitial fibrosis foci count” value ([2]; Day −10 to Day 30) was 2.1. The “mean chronic inflammation score” value ([2]; Day −10 to Day 30) was 1.0, the “mean interstitial fibrosis score” value ([2]; Day −10 to Day 30) was 1.0 and the “mean interstitial fibrosis foci count” value ([2]; Days 0 to 30) was 3.4. For the same compound, the “mean chronic inflammation score” value ([2]; Days 0 to 30) was 1.1, the “mean interstitial fibrosis score” value ([2]; Days 0 to 30) was 1.1 and the “mean interstitial fibrosis foci count” value ([2]; Days 14 to 30) was 5.9. For the same compound, the “mean chronic inflammation score” value ([2]; Days 14 to 30) was 1.6, the “mean interstitial fibrosis score” value ([2]; Days 14 to 30) was 1.6 and the “Chronic Inflammation (0-5)” value [2, 4] was 1. For the same compound, the “Interstitial Fibrosis (0-5)” value [2, 4] was 1 (1-6 foci that fill a 10x objective field), the “Number of Foci of Interstitial Fibrosis that Fill a 10x Objective Field” value [2, 4] was 2 (2×) and 1 (3×) and 4 (2×) and the “Chronic Inflammation (0-5)” value ([2]; Group 3: Qod, Day 0 to Day 30) was 1 (7×) and 2. The “Interstitial Fibrosis (0-5)” value ([2]; Group 3: Qod, Day 0 to Day 30) was 1 (1-6 foci that fill a 10x objective field) (7×) and 2 (7-12 foci that fill a 10x objective field), the “Number of Foci of Interstitial Fibrosis that Fill a 10x Objective Field” value ([2]; Group 3: Qod, Day 0 to Day 30) was 2 (3×) and 10 and 1 (2×) and 4 and 5 and the “Chronic Inflammation (0-5)” value ([2]; Group 4: Qod, Day 14 to Day 30) was 1 (5×) and 3 (2×) and 2. For the same compound, the “Interstitial Fibrosis (0-5)” value ([2]; Group 4: Qod, Day 14 to Day 30) was 1 (1-6 foci that fill a 10x objective field) (5×) and 3 (13-18 foci that fill a 10x objective field) (2×) and 2 (7-12 foci that fill a 10x objective field), the “Number of Foci of Interstitial Fibrosis that Fill a 10x Objective Field” value ([2]; Group 4: Qod, Day 14 to Day 30) was 2 (4×) and 14 and 17 and 7 and 1 and the “Chronic Inflammation Scores compared to Vehicle (FIG. 7)” value ([2]; all three treatments, Day 0 to Day 30 greatest effect) was “reduce inflammation compared to the Vehicle control group”. The “Interstitial Fibrosis Scores compared to Vehicle (FIG. 8)” value [2, 6] was “reduce inflammation compared to the Vehicle control group”, the “number of foci of interstitial fibrosis compared to Vehicle (FIG. 9)” value [2, 6] was “reduce inflammation compared to the Vehicle control group” and the “amount of lung fibrosis induced by bleomycin” value ([2]; d=−10, Mann-Whitney test, p<0.05) was “decreases the amount of lung fibrosis induced by bleomycin in a statistically significant manner”. For the same compound, the “animal death / survival after bleomycin administration” value [3] was “significantly abrogates the increase in animal death” and the “body weight loss that accompanies bleomycin insult” value [3] was “reduces the dramatic loss in body weight”.
